In US10506808B2, “Composition and rodenticide bait comprising difethialone and method for controlling target rodent pests” (priority 2015, dated 2019):
Read-outs that look alike come from different tables or passages of the source.

What was measured:
[1] = format: in vivo, Rattus norvegicus; details: about 3.4 mg/kg difethialone per os (40% homo-, 60% hetero-stereoisomer, each racemic), mean of six rats
Protocol: About 0.525 g (±0.025 g) of rat liver is weighed out accurately and placed in a 50 mL polypropylene tube. 10 mL of acetone are added and the suspension is homogenized using an Ultra-Turrax® homogenizer/disperser for a time of about 30 seconds. The homogenizer/disperser shaft is rinsed with hot water and then twice with 20 mL of acetone in a polypropylene tube. The homogenate is centrifuged for 5 minutes at a centrifugation speed of 3000 rpm (revolutions per minute). The supernatant is collected and transferred into a test tube. The sample is subjected to evaporation under a stream of nitrogen (N2) at a temperature of 40° C. so as to form a dry extract.
1 mL of acetonitrile is added to the tube containing the dry extract so as to dissolve it. The acetonitrile solution is washed twice successively with 1 mL of hexane. The lipid-free extract is dried under a stream of nitrogen (N2) at a temperature of 40° C. and is then taken up in 0.5 mL of methanol and dissolved by vortex stirring. 0.5 mL of ultra-pure (Milli-Q) water is then added. The sample is vortex-homogenized.
1 mL of dichloromethane, then 1 mL of methanol, then 1 mL of ultra-pure (Milli-Q) water are passed through an Oasis HLB 1 cc cartridge (WAT094225, Waters). The lipid-free liver extract (1 mL of MeOH/Milli-Q H2O) containing difethialone is then loaded onto the top of the cartridge so that the liver extract penetrates through the cartridge by gravity on contact with the solid phase. 1 mL of washing solution formed from methanol and ultra-pure water in a 90/10 volume proportion is then loaded onto the top of the cartridge. The cartridge is dried by suction under vacuum connected to the bottom of the cartridge. 1 mL of eluting solution formed from dichloromethane and methanol in a 90/10 volume proportion is then loaded onto the top of the cartridge and an eluate comprising difethialone is collected at the bottom of the cartridge. The solvent of the eluate is evaporated off under a stream of nitrogen (N2) at a temperature of 40° C. The sample is taken up in 0.5 mL of acetonitrile and the acetonitrile solution containing difethialone is filtered through a 0.2 μm filter.
The composition is analysed by high-pressure liquid chromatography on a chiral column as described in point A2) above.
A solution of a mixture of homo-stereoisomer (DFN-Homo-SI) and of hetero-stereoisomer (DFN-Hetero-SI) of difethialone in a mixture of vegetable oil and 5% DMSO is administered by tube-feeding (“per os”) to 8-week-old coumaphen-sensitive rats (male and female Rattus norvegicus) weighing about 200 g. The molar proportion of homo-stereoisomer is 40% and the molar proportion of hetero-stereoisomer is 60%. Each configurational stereoisomer of difethialone is formed from a racemic mixture of the two enantiomers of said corresponding configurational stereoisomer.
On D0, a tube-feeding solution is administered to each rat so that the amount of difethialone ingested by each rat is about 3.4 mg per kilogram of rat. To avoid haemorrhage, the rats are also treated daily by subcutaneous administration of a dose of vitamin K1 (as haemorrhage antidote) at a rate of […] per 200 g of live rat weight.
At 4 hours (H+4), 9 hours (H+9), 24 hours (H+24), 120 hours (H+120), 168 hours (H+168) and 216 hours (H+216) after tube-feeding, three male rats and three female rats anaesthetized beforehand with isoflurane are euthanized, the liver of the euthanized rats is removed, the difethialone is then extracted from the liver, the amount of each of the configurational stereoisomers of difethialone is assayed, the area under the peaks in the chromatogram obtained is measured and each configurational stereoisomer is quantified by comparison with a calibration curve. […]

[2] = format: in vivo, Rattus norvegicus; details: 48 hours after tube-feeding; about 3.4 mg/kg difethialone per os (40% homo-, 60% hetero-stereoisomer, each racemic); mean of six rats
[3] = 4 hours after tube-feeding, daily vitamin K1

SMILES: Oc1c(C2CC(c3ccc(-c4ccc(Br)cc4)cc3)Cc3ccccc32)c(=S)oc2ccccc12 (single isomer, unassigned) [DFN-Homo-dextro, 3-(4′-bromobiphenyl-4-yl)-1-(4-hydroxythiocoumarin-3-yl)-1,2,3,4-tetrahydronaphthalene]
- Hepatic content [1, 3]: 4566 ng/g
- Hepatic content ([1]; 9 hours after tube-feeding): 4692.5 ng/g
- Hepatic content ([1]; 24 hours after tube-feeding): 1243.5 ng/g
- Hepatic content ([1]; 120 hours after tube-feeding): 192.5 ng/g
- Hepatic content ([1]; 168 hours after tube-feeding): 129 ng/g
- Hepatic content ([1]; 216 hours after tube-feeding): 77.5 ng/g
- Hepatic content [2]: 720.5 ng/g

SMILES: Oc1c(C2CC(c3ccc(-c4ccc(Br)cc4)cc3)Cc3ccccc32)c(=S)oc2ccccc12 (single isomer, unassigned) [DFN-Hetero-dextro, 3-(4′-bromobiphenyl-4-yl)-1-(4-hydroxythiocoumarin-3-yl)-1,2,3,4-tetrahydronaphthalene]
- Hepatic content [1, 3]: 10589.5 ng/g
- Hepatic content ([1]; 9 hours after tube-feeding): 12155.5 ng/g
- Hepatic content ([1]; 24 hours after tube-feeding): 8102 ng/g
- Hepatic content ([1]; 120 hours after tube-feeding): 5431.5 ng/g
- Hepatic content ([1]; 168 hours after tube-feeding): 3011 ng/g
- Hepatic content ([1]; 216 hours after tube-feeding): 4030.5 ng/g
- Hepatic content [2]: 7974.5 ng/g
